Data taken from patent EP4725957A1, “GROUP OF CYCLIC ALKALINE LIPOPEPTIDE COMPOUNDS, AND PREPARATION METHOD THEREFOR AND USE THEREOF” (Institute of Medicinal Biotechnology, Chinese Academy of …, priority 2023, dated 2024).
Converted amounts (≈) assume the structure as drawn. Numbered stars: 1 amine (or outer) side, 2 acyl side, 3 side chain; on linkers, the order of the positions; unused ones are H or OH. Bridge positions count the residues as written; N and C are the ends. Square brackets hold non-standard residues; d marks the D form. Peptide text beside a SMILES is read from it. * marks the point of attachment. X3 = O=C([C@@H](Cc1ccc(CS(=O)(=O)O)cc1)N[*:1])[*:2]; Dab(CH2SO3H) = N[C@@H](CCNCS(=O)(=O)O)C(=O)O; Heptanoyl(6-Me) = CC(C)CCCCC(=O)*; dOrn = NCCC[C@@H](N)C(=O)O; Nonanoyl = CCCCCCCCC(=O)*; X1 = CC[C@H](C)CCCCC(=O)*; Heptanoyl = CCCCCCC(=O)*; Octanoyl = CCCCCCCC(=O)*; Orn = NCCC[C@H](N)C(=O)O; dDap = NC[C@@H](N)C(=O)O; Dab = NCC[C@H](N)C(=O)O; Dap = NC[C@H](N)C(=O)O

Assays:
Type in all cases: cell-based
[1] = Nephrotoxicity assay: in vitro cytotoxicity of HK-2 cells by CCK-8 assay; settings: human, HK-2 cells (human renal), 72 h incubation with drug-containing medium
Procedure, shortened: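 HK-2 human renal cells in RPMI-1640 with 10% FBS were exposed to compounds at final 12.5–500 µg/mL for 72 h, then CCK-8 for 3 h and OD450 read. Viability was normalised to drug-free wells; IC50 came from logarithmic regression over three repeats, with polymyxin B as positive drug.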

[2] = system: Pseudomonas aeruginosa ATCC 27853; settings: ATCC 27853
Procedure, shortened: (§1)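 Colonies from 18-24 h plates were suspended to 0.5 McFarland and diluted in MH broth. Two-fold compound dilutions were then mixed 1:1 with inoculum to reach 64 to 0.03 mg/L and (2-4) × 10^5 CFU/mL. Plates were sealed and incubated at 35-37°C for 16-20 h, after which the MIC was read.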

[3] = system: Escherichia coli ATCC BAA-2523; settings: ATCC BAA-2523
Procedure, shortened: as §1

[4] = system: Pseudomonas aeruginosa PAE19-3; settings: PAE19-3
Procedure, shortened: as §1

[5] = system: Acinetobacter baumannii NCTC 13304 (OXA-27); settings: NCTC 13304
Procedure, shortened: as §1

[6] = system: Klebsiella pneumoniae KPN+19-15; settings: KPN+19-15
Procedure, shortened: as §1

[7] = system: Acinetobacter baumannii ABA19-1; settings: ABA19-1
Procedure, shortened: as §1

[8] = system: Klebsiella pneumoniae ATCC BAA-1705 (KPC); settings: ATCC BAA-1705
Procedure, shortened: as §1

[9] = system: Escherichia coli ATCC BAA-2340 (KPC); settings: ATCC BAA-2340
Procedure, shortened: as §1

SMILES | IC50 at 72 h [1] [µg/mL] | MIC [2] [µg/mL] | MIC [3] [µg/mL] | MIC [4] [µg/mL] | MIC [5] [µg/mL] | MIC [6] [µg/mL] | MIC [7] [µg/mL] | MIC [8] [µg/mL] | MIC [9] [µg/mL]
CC[C@H](C)CCCCC(=O)N[C@@H](CCN)C(=O)N[C@H](C(=O)N[C@H](CCCN)C(=O)N[C@H]1CCNC(=O)[C@H]([C@@H](C)O)NC(=O)[C@H](CCN)NC(=O)[C@H](CCN)NC(=O)[C@H](CC(C)C)NC(=O)[C@@H](Cc2ccccc2)NC(=O)[C@H](CCN)NC1=O)[C@@H](C)O [Compound 41, (S)-6-methyloctanoyl-Dab-Thr-D-Orn-ring(4-10)[Dab-Dab-D-Phe-Leu-Dab-Dab-Thr]] (X1-[Dab]T[dOrn][Dab][Dab][dF]L[Dab][Dab]T; lactam 4-C) | 259 ± 7.8 (≈ 212 µM) | 0.25 (≈ 0.205 µM) | 0.03 (≈ 0.0246 µM) | 1 (≈ 0.821 µM) | 0.06 (≈ 0.0493 µM) | 0.125 (≈ 0.103 µM) | 0.125 (≈ 0.103 µM) | 0.06 (≈ 0.0493 µM) | 0.03 (≈ 0.0246 µM)
CCCCCCCC(=O)N[C@@H](CCN)C(=O)N[C@H](C(=O)N[C@@H](CCCN)C(=O)N[C@H]1CCNC(=O)[C@H]([C@@H](C)O)NC(=O)[C@H](CCN)NC(=O)[C@H](CCN)NC(=O)[C@H](CC(C)C)NC(=O)[C@@H](Cc2ccccc2)NC(=O)[C@H](CCN)NC1=O)[C@@H](C)O [Compound 48, Octanoyl-Dab-Thr-Orn-ring(4-10)[Dab-Dab-D-Phe-Leu-Dab-Dab-Thr]] (Octanoyl-[Dab]T[Orn][Dab][Dab][dF]L[Dab][Dab]T; lactam 4-C) | 239 ± 7.4 (≈ 199 µM) | ≤0.03 | 0.03 (≈ 0.0249 µM) | 0.25 (≈ 0.208 µM) | 0.06 (≈ 0.0499 µM) | ≤0.03 | 0.125 (≈ 0.104 µM) | ≤0.03 | 0.03 (≈ 0.0249 µM)
CC(C)CCCCC(=O)N[C@@H](CCN)C(=O)N[C@H](C(=O)N[C@@H](CN)C(=O)N[C@H]1CCNC(=O)[C@H]([C@@H](C)O)NC(=O)[C@H](CCN)NC(=O)[C@H](CCN)NC(=O)[C@H]([C@@H](C)O)NC(=O)[C@@H](Cc2ccccc2)NC(=O)[C@H](CCNCS(=O)(=O)O)NC1=O)[C@@H](C)O [Compound 118, 6-methylheptanoyl-Dab-Thr-Dap-ring(4-10)[Dab-Dab(CH2SO3H)-D-Phe-Thr-Dab-Dab-Thr]] ({Heptanoyl(6-Me)}-[Dab]T[Dap][Dab][Dab(CH2SO3H)][dF]T[Dab][Dab]T; lactam 4-C) | > 500 | 0.25 (≈ 0.199 µM) | 0.06 (≈ 0.0477 µM) | 0.5 (≈ 0.398 µM) | 0.06 (≈ 0.0477 µM) | 0.125 (≈ 0.0994 µM) | 0.25 (≈ 0.199 µM) | 0.125 (≈ 0.0994 µM) | 0.06 (≈ 0.0477 µM)
CCCCCCCCC(=O)N[C@@H](CN)C(=O)N[C@H](C(=O)N[C@H](CO)C(=O)N[C@H]1CCNC(=O)[C@H]([C@@H](C)O)NC(=O)[C@H](CCN)NC(=O)[C@H](CCN)NC(=O)[C@H]([C@@H](C)O)NC(=O)[C@@H](Cc2ccccc2)NC(=O)[C@H](CCN)NC1=O)[C@@H](C)O [Compound 55, Nonanoyl-Dap-Thr-D-Ser-ring(4-10)[Dab-Dab-D-Phe-Thr-Dab-Dab-Thr]] (Nonanoyl-[Dap]T[dS][Dab][Dab][dF]T[Dab][Dab]T; lactam 4-C) | 300 ± 10.8 (≈ 258 µM) | 64 (≈ 55 µM) | 0.03 (≈ 0.0258 µM) | 8 (≈ 6.87 µM) | 0.25 (≈ 0.215 µM) | 0.5 (≈ 0.429 µM) | 0.25 (≈ 0.215 µM) | 0.25 (≈ 0.215 µM) | 0.03 (≈ 0.0258 µM)
CCCCCCC(=O)N[C@@H](CCN)C(=O)N[C@H](C(=O)N[C@H](CN)C(=O)N[C@H]1CCNC(=O)[C@H]([C@@H](C)O)NC(=O)[C@H](CCN)NC(=O)[C@H](CCN)NC(=O)[C@H]([C@@H](C)O)NC(=O)[C@@H](Cc2ccccc2)NC(=O)[C@H](CCN)NC1=O)[C@@H](C)O [Compound 4, Heptanoyl-Dab-Thr-D-Dap-ring(4-10)[Dab-Dab-D-Phe-Thr-Dab-Dab-Thr]] (Heptanoyl-[Dab]T[dDap][Dab][Dab][dF]T[Dab][Dab]T; lactam 4-C) | > 500 | 0.03 (≈ 0.0261 µM) | 0.03 (≈ 0.0261 µM) | 0.25 (≈ 0.218 µM) | 0.03 (≈ 0.0261 µM) | 0.03 (≈ 0.0261 µM) | 0.03 (≈ 0.0261 µM) | 0.03 (≈ 0.0261 µM) | 0.03 (≈ 0.0261 µM)
CCCCCCC(=O)N[C@@H](CCN)C(=O)N[C@H](C(=O)N[C@H](CO)C(=O)N[C@H]1CCNC(=O)[C@H]([C@@H](C)O)NC(=O)[C@H](CCCN)NC(=O)[C@H](CCN)NC(=O)[C@H]([C@@H](C)O)NC(=O)[C@@H](Cc2ccccc2)NC(=O)[C@H](CCN)NC1=O)[C@@H](C)O [Compound 89, Heptanoyl-Dab-Thr-D-Ser-ring(4-10)[Dab-Dab-D-Phe-Thr-Dab-Orn-Thr]] (Heptanoyl-[Dab]T[dS][Dab][Dab][dF]T[Dab][Orn]T; lactam 4-C) | > 500 | >64 | 0.125 (≈ 0.107 µM) | 64 (≈ 55 µM) | 0.03 (≈ 0.0258 µM) | 0.5 (≈ 0.429 µM) | 0.06 (≈ 0.0515 µM) | 0.25 (≈ 0.215 µM) | 0.125 (≈ 0.107 µM)
CCCCCCC(=O)N[C@@H](CCN)C(=O)N[C@H](C(=O)N[C@H](CN)C(=O)N[C@H]1CCNC(=O)[C@H]([C@@H](C)O)NC(=O)[C@H](CCN)NC(=O)[C@H](CCN)NC(=O)[C@H](CC(C)C)NC(=O)[C@@H](Cc2ccccc2)NC(=O)[C@H](CCN)NC1=O)[C@@H](C)O [Compound 34, Heptanoyl-Dab-Thr-D-Dap-ring(4-10)[Dab-Dab-D-Phe-Leu-Dab-Dab-Thr]] (Heptanoyl-[Dab]T[dDap][Dab][Dab][dF]L[Dab][Dab]T; lactam 4-C) | 298 ± 3.7 (≈ 256 µM) | 0.06 (≈ 0.0517 µM) | 0.06 (≈ 0.0517 µM) | 0.5 (≈ 0.431 µM) | 0.06 (≈ 0.0517 µM) | 0.06 (≈ 0.0517 µM) | 0.06 (≈ 0.0517 µM) | 0.06 (≈ 0.0517 µM) | 0.06 (≈ 0.0517 µM)
CC(C)CCCCC(=O)N[C@@H](CCN)C(=O)N[C@H](C(=O)N[C@@H](CN)C(=O)N[C@H]1CCNC(=O)[C@H]([C@@H](C)O)NC(=O)[C@H](CCN)NC(=O)[C@H](CCN)NC(=O)[C@H]([C@@H](C)O)NC(=O)[C@@H](Cc2ccc(CS(=O)(=O)O)cc2)NC(=O)[C@H](CCN)NC1=O)[C@@H](C)O [Compound 116, 6-methylheptanoyl-Dab-Thr-Dap-ring(4-10)[Dab-Dab-D-Phe(4-CH2SO3H)-Thr-Dab-Dab-Thr]] ({Heptanoyl(6-Me)}-[Dab]T[Dap][Dab][Dab][X3]T[Dab][Dab]T; lactam 4-C) | > 500 | 0.25 (≈ 0.199 µM) | 0.03 (≈ 0.0239 µM) | 0.25 (≈ 0.199 µM) | 0.06 (≈ 0.0477 µM) | 0.125 (≈ 0.0994 µM) | 0.06 (≈ 0.0477 µM) | 0.125 (≈ 0.0994 µM) | 0.03 (≈ 0.0239 µM)
CCCCCCC(=O)N[C@@H](CCN)C(=O)N[C@H](C(=O)N[C@H](CCCN)C(=O)N[C@H]1CCNC(=O)[C@H]([C@@H](C)O)NC(=O)[C@H](CCN)NC(=O)[C@H](CCN)NC(=O)[C@H]([C@@H](C)O)NC(=O)[C@@H](Cc2ccccc2)NC(=O)[C@H](CCN)NC1=O)[C@@H](C)O [Compound 24, Heptanoyl-Dab-Thr-D-Orn-ring(4-10)[Dab-Dab-D-Phe-Thr-Dab-Dab-Thr]] (Heptanoyl-[Dab]T[dOrn][Dab][Dab][dF]T[Dab][Dab]T; lactam 4-C) | > 500 | 0.5 (≈ 0.425 µM) | ≤0.03 | 2 (≈ 1.7 µM) | 0.06 (≈ 0.051 µM) | 0.125 (≈ 0.106 µM) | 0.125 (≈ 0.106 µM) | 0.06 (≈ 0.051 µM) | ≤0.03
CC(C)CCCCC(=O)N[C@@H](CCN)C(=O)N[C@H](C(=O)N[C@H](CO)C(=O)N[C@H]1CCNC(=O)[C@H]([C@@H](C)O)NC(=O)[C@H](CCN)NC(=O)[C@H](CCNCS(=O)(=O)O)NC(=O)[C@H]([C@@H](C)O)NC(=O)[C@@H](Cc2ccccc2)NC(=O)[C@H](CCN)NC1=O)[C@@H](C)O [Compound 110, 6-methylheptanoyl-Dab-Thr-D-Ser-ring(4-10)[Dab-Dab-D-Phe-Thr-Dab(CH2SO3H)-Dab-Thr]] ({Heptanoyl(6-Me)}-[Dab]T[dS][Dab][Dab][dF]T[Dab(CH2SO3H)][Dab]T; lactam 4-C) | > 500 | 0.25 (≈ 0.199 µM) | 0.06 (≈ 0.0477 µM) | 0.5 (≈ 0.397 µM) | 0.06 (≈ 0.0477 µM) | 0.125 (≈ 0.0993 µM) | 0.25 (≈ 0.199 µM) | 0.125 (≈ 0.0993 µM) | 0.06 (≈ 0.0477 µM)
CCCCCCCC(=O)N[C@@H](CCN)C(=O)N[C@H](C(=O)N[C@H](CO)C(=O)N[C@H]1CCNC(=O)[C@H]([C@@H](C)O)NC(=O)[C@H](CCN)NC(=O)[C@H](CCCN)NC(=O)[C@H]([C@@H](C)O)NC(=O)[C@@H](Cc2ccccc2)NC(=O)[C@H](CCN)NC1=O)[C@@H](C)O [Compound 78, Octanoyl-Dab-Thr-D-Ser-ring(4-10)[Dab-Dab-D-Phe-Thr-Orn-Dab-Thr]] (Octanoyl-[Dab]T[dS][Dab][Dab][dF]T[Orn][Dab]T; lactam 4-C) | > 500 | >64 | ≤0.03 | 64 (≈ 54.3 µM) | ≤0.03 | 0.5 (≈ 0.424 µM) | 0.06 (≈ 0.0509 µM) | 0.25 (≈ 0.212 µM) | ≤0.03
